Test results reported in patent US20170182033A1, “PHARMACEUTICAL COMPOSITIONS FOR EXTENDED RELEASE OF OXYCODONE AND ACETAMINOPHEN RESULTING IN A QUICK ONSET AND PROLONGED PERIOD OF ANALGESIA” (priority 2011, published 2017).

Experiments:
[1] = Ethanol release testing at 100 rpm paddle speed (Example 29); format: physicochemical; conditions: release from the formulation
[2] = system: hepatic GSH; conditions: mice; 100 mg/kg to 600 mg/kg; cited from earlier work

Compound: CC(=O)Nc1ccc(O)cc1 [acetaminophen]
- Percent Release, Mean ([1]; 0% Ethanol, 15 Min): 52.2%
- Percent Release, Mean ([1]; 0% Ethanol, 30 Min): 54.6%
- Percent Release, Mean ([1]; 0% Ethanol, 45 Min): 56.8%
- Percent Release, Mean ([1]; 0% Ethanol, 60 Min): 58.8%
- Percent Release, Mean ([1]; 0% Ethanol, 75 Min): 60.8%
- Percent Release, Mean ([1]; 0% Ethanol, 90 Min): 62.6%
- Percent Release, Mean ([1]; 0% Ethanol, 105 Min): 64.3%
- Percent Release, Mean ([1]; 0% Ethanol, 120 Min): 66.0%
- Percent Release, Mean ([1]; 0% Ethanol, 240 Min): 78.6%
- Percent Release, Mean ([1]; 0% Ethanol, 480 Min): 95.5%
- Percent Release, Mean ([1]; 5% Ethanol, 15 Min): 52.6%
- Percent Release, Mean ([1]; 5% Ethanol, 30 Min): 55.1%
- Percent Release, Mean ([1]; 5% Ethanol, 45 Min): 57.1%
- Percent Release, Mean ([1]; 5% Ethanol, 60 Min): 58.9%
- Percent Release, Mean ([1]; 5% Ethanol, 75 Min): 60.7%
- Percent Release, Mean ([1]; 5% Ethanol, 90 Min): 62.3%
- Percent Release, Mean ([1]; 5% Ethanol, 105 Min): 63.9%
- Percent Release, Mean ([1]; 5% Ethanol, 120 Min): 65.5%
- Percent Release, Mean ([1]; 5% Ethanol, 240 Min): 77.2%
- Percent Release, Mean ([1]; 5% Ethanol, 480 Min): 94.4%
- Percent Release, Mean ([1]; 10% Ethanol, 15 Min): 51.7%
- Percent Release, Mean ([1]; 10% Ethanol, 30 Min): 54.1%
- Percent Release, Mean ([1]; 10% Ethanol, 45 Min): 56.0%
- Percent Release, Mean ([1]; 10% Ethanol, 60 Min): 57.8%
- Percent Release, Mean ([1]; 10% Ethanol, 75 Min): 59.5%
- Percent Release, Mean ([1]; 10% Ethanol, 90 Min): 61.1%
- Percent Release, Mean ([1]; 10% Ethanol, 105 Min): 62.6%
- Percent Release, Mean ([1]; 10% Ethanol, 120 Min): 64.1%
- Percent Release, Mean ([1]; 10% Ethanol, 240 Min): 75.5%
- Percent Release, Mean ([1]; 10% Ethanol, 480 Min): 93.5%
- Percent Release, Mean ([1]; 20% Ethanol, 15 Min): 50.2%
- Percent Release, Mean ([1]; 20% Ethanol, 30 Min): 53.4%
- Percent Release, Mean ([1]; 20% Ethanol, 45 Min): 55.5%
- Percent Release, Mean ([1]; 20% Ethanol, 60 Min): 57.3%
- Percent Release, Mean ([1]; 20% Ethanol, 75 Min): 59.0%
- Percent Release, Mean ([1]; 20% Ethanol, 90 Min): 60.5%
- Percent Release, Mean ([1]; 20% Ethanol, 105 Min): 61.9%
- Percent Release, Mean ([1]; 20% Ethanol, 120 Min): 63.3%
- Percent Release, Mean ([1]; 20% Ethanol, 240 Min): 76.0%
- Percent Release, Mean ([1]; 20% Ethanol, 480 Min): 91.9%
- Percent Release, Mean ([1]; 40% Ethanol, 15 Min): 16.7%
- Percent Release, Mean ([1]; 40% Ethanol, 30 Min): 30.4%
- Percent Release, Mean ([1]; 40% Ethanol, 45 Min): 38.5%
- Percent Release, Mean ([1]; 40% Ethanol, 60 Min): 43.1%
- Percent Release, Mean ([1]; 40% Ethanol, 75 Min): 46.1%
- Percent Release, Mean ([1]; 40% Ethanol, 90 Min): 48.3%
- Percent Release, Mean ([1]; 40% Ethanol, 105 Min): 49.8%
- Percent Release, Mean ([1]; 40% Ethanol, 120 Min): 51.1%
- Percent Release, Mean ([1]; 40% Ethanol, 240 Min): 60.8%
- Percent Release, Mean ([1]; 40% Ethanol, 480 Min): 77.2%
- Onset of circulating hepatic GSH changes after administration [2]: ≤ 15 min
